We go through seven compounds from patent US20230075765A1, “PYRROLO[2,3-D]PYRIMIDINE DERIVATIVE TARGETING EGFR MUTATION, AS WELL AS THE PREPARATIVE METHOD AND THE USE THEREOF” (WEST CHINA HOSPITAL, SICHUAN UNIVERSITY, priority 2020, published 2023).

Where two headings read alike, the source gives them in different places.

One assay has as its system A549 cells. Kind of assay: Inhibition of cell proliferation, CCK8 method. Type of assay: cell-based, human. As to conditions: A549 lung adenocarcinoma cells, 48 h, read-out: Inhibitory activity (IC50) against A549. As to the method: (§1) Compounds 1-9 of the present invention were respectively weighed and dissolved in 1 ml of dimethyl sulfoxide (DMSO), to prepare a 10 mM drug solution, which was stored in a refrigerator at −20° C. in the dark after packaging. The stock solution was diluted with the corresponding culture medium to the required concentration just before the experiment.
(§2) HBE cells and BEAS-2B cells are normal lung bronchial epithelial cell lines, and both cells were cultured in DMEM high glucose medium (supplemented with 10% fetal bovine serum and 1% double antibody) to the logarithmic growth phase; H460 cells, A549 cells, H1975 cells and HCC827 cells are lung cancer cell lines, and all of them were cultured in RPMI1640 medium (supplemented with 10% fetal bovine serum and 1% double antibody) to the logarithmic growth phase. Among them, H1975 cells and HCC827 cells are EGFR mutant cells.
(§3) When the cells were cultured to 90% of the growth density, the cells were digested with 0.25% trypsin to prepare a single cell suspension. The cells were counted, and then seeded in a 96-well plate at a density of 5000 cells/well, 100 μl for each well. The culture plate was moved into a CO2 incubator and incubated for 24 h at 37° C. and 5% CO2. Compounds at different concentrations were added to each well, 5 replicate wells for each concentration, and the cells were treated with the compounds for 48 hours. CCK8 detection reagent was added to each well according to the operation manual, and then the plate was further incubated for 1 h before terminating the culture. 450 nm wavelength was chosen, and the absorbance value of each well was adjusted on the microplate ELISA analyzer. The result was recorded. […] was taken as the horizontal axis, and absorbance as the vertical axis to plot a curve. The half inhibitory concentration (IC50) was calculated by Bliss method. Each experiment was repeated at least 3 times.
(§4) Normal lung cell lines and different lung cancer cell lines were selected for experiments. Amongst, the compound with high anti-cancer activity was screened, whose anti-tumor activity was further studied.
For orientation: Formazan colour is commonly taken as a measure of viable cells.

The test system of another assay is H460 cells. Put plainly: Inhibition of cell proliferation, CCK8 method. Type of assay: cell-based, human. As to conditions: 48 h, read-out: Inhibitory activity (IC50) against H460. As to the method:
as §1, §2, §3, §4

Another assay relates to BEAS-2B cells. Put plainly: Inhibition of cell proliferation, CCK8 method. Type of assay: cell-based, human. As to conditions: BEAS-2B normal bronchial epithelial cells, 48 h, read-out: Inhibitory activity (IC50) against BEAS-2B. As to the method: as §1, §2, §3, §4
The target of the next assay is T1, EGFR (Homo sapiens, UniProt P00533).
T1 construct: purchased Carna 14-531
T1 sequence (P00533 25-1210): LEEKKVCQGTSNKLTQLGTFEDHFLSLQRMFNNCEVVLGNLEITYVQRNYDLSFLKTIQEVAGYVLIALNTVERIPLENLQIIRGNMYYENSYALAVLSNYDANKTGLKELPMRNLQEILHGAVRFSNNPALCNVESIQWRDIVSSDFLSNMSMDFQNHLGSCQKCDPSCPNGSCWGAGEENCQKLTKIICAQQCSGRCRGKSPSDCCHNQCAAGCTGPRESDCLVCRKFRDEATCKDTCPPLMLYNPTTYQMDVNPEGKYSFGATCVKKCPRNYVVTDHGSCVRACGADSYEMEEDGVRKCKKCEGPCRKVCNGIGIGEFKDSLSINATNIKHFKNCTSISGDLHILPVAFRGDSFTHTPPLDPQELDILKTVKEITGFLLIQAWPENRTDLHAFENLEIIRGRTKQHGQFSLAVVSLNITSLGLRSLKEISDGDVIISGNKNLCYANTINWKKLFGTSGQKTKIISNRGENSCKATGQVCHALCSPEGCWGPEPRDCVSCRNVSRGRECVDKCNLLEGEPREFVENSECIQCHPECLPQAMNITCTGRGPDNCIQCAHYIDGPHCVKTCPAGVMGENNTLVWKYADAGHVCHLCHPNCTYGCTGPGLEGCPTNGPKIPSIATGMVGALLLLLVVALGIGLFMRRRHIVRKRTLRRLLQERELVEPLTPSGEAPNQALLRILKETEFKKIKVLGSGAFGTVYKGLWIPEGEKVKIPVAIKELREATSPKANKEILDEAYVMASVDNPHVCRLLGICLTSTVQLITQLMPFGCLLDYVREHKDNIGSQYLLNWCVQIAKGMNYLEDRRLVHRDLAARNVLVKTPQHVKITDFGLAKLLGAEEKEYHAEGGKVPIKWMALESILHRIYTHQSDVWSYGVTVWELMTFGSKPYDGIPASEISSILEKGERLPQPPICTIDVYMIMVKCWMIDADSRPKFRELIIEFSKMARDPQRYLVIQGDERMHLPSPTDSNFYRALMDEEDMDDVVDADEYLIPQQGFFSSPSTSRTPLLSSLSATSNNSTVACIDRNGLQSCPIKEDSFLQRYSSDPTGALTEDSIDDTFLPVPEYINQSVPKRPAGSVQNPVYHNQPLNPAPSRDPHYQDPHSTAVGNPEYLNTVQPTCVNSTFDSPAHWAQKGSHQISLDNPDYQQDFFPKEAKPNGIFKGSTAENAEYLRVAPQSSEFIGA
Kind of assay: Kinase inhibition, mobility shift assay. Type of assay: biochemical. As to conditions: for Single-concentration inhibitory activity against EGFR, Mean (100% inhibition): compound concentration 80 nM; for IC50: wild-type EGFR, read-out: Inhibitory activity (IC50) on EGFR. As to the method: According to relevant literature, the inhibitory activity of five kinases (EGFR, EGFR-LT, EGFR-LTC, BTK, JAK3) were tested. Note: EGFR, EGFR-LT, EGFR-LTC: wild-type EGFR, L858R/T790M (EGFR-LT), or L858R/T790M/C797S (EGFR-LTC) mutant protein.
95 μl of 100% DMSO was added to the first well of a 96-well plate, and then 5 μl of 10 mM compound solution was added to prepare a 500 μM compound solution.
10 μl solution was taken out from the 50-fold concentration of compound solution (prepared and tested), and transferred to a 96-well plate, to which was added 90 μl kinase buffer to prepare a 5-fold concentration of compound solution.
5 μl solution was taken out from the 5-fold concentration of compound solution in a 96-well plate, and transferred to a 384-well reaction plate. For example, the solution was transferred from well A1 of a 96-well plate to wells A1 and A2 of a 384-well plate, from well A2 of a 96-well plate to wells A3 and A4 of a 384-well plate, and so on.
1) The kinase was added to 1× kinase buffer to form 2.5× kinase solution;
2) 10 μl of the above 2.5× kinase solution was transferred to a 384-well reaction plate, and 1× kinase buffer was added to the negative control well, then incubated for 10 min at room temperature;
3) FAM-labeled polypeptide and ATP were added to 1× kinase buffer to form a 2.5×substrate solution;
5) The 384-well reaction plate was incubated at 28° C. for 60 min, to which was added 30 μl of stop solution to stop the reaction, and the model of biochemical incubator was SPX-100B-Z.
The conversion rate was read on CaliperEZ Reader.
1) The conversion rate data were copied from CaliperEZ Reader II;
2) The conversion rate was converted into the inhibition rate;
Percent inhibition=(max−conversion)/(max−min)*100
“min” is the reading of the control well without enzyme; “max” is the reading of DMSO control well.
3) IC50 values were fitted by using XLFit excel add-in version 5.4.0.8.
Fitting formula: Y=Bottom+(Top−Bottom)/(1+(IC50/X)^HillSlope)

[1] abbreviates: Homo sapiens, NCI-H460, H460 large cell lung cancer cells.

As usually defined, the IC50 is the concentration at which inhibition is half-maximal. Take `C=CC(=O)Nc1cccc(Oc2nc(Nc3ccc(N4CCN(C)CC4)c(Cl)c3)nc3[nH]ccc23)c1` [Compound 2]: the IC50 in the assay with A549 cells worked out at 1.68 µM; in the assay with H460 cells (H460 large cell lung cancer cells), 4.86 µM; with BEAS-2B cells, 3.8 µM. For the same compound, the “Single-concentration inhibitory activity against EGFR, Mean (100% inhibition)” value on EGFR is recorded as 86 % inhibition.

Turning to `C=CC(=O)Nc1cccc(Oc2nc(Nc3ccc(N4CCN(C)CC4)c(OC)c3)nc3[nH]ccc23)c1` [Compound 4], the IC50 was determined as 20.6 µM in the assay on A549 cells (Homo sapiens), 33.6 µM with H460 cells (setting [1]), 9.89 µM in the assay on BEAS-2B cells (Homo sapiens) and 0.217 µM on EGFR. The “Single-concentration inhibitory activity against EGFR, Mean (100% inhibition)” value at EGFR was found to be 32 % inhibition.

With `C=CC(=O)Nc1cccc(Oc2nc(Nc3ccc(N4CCN(C)CC4)c([N+](=O)[O-])c3)nc3[nH]ccc23)c1` [Compound 5], the IC50 was found to be 2.9 µM with A549 cells (Homo sapiens), 8.02 µM with H460 cells (setting [1]), 3.68 µM in the assay with BEAS-2B cells (Homo sapiens) and 0.145 µM at EGFR. For the same compound, the “Single-concentration inhibitory activity against EGFR, Mean (100% inhibition)” value on EGFR is recorded as 37 % inhibition.

For the compound `C=CC(=O)Nc1cccc(Oc2nc(Nc3ccc(N4CCN(C)CC4)c(N)c3)nc3[nH]ccc23)c1` [Compound 6], the IC50 worked out at 6.06 µM with A549 cells (Homo sapiens), 26.7 µM in the assay with H460 cells (setting [1]), 7.8 µM with BEAS-2B cells (Homo sapiens) and 0.064 µM at EGFR. For the same compound, the “Single-concentration inhibitory activity against EGFR, Mean (100% inhibition)” value at EGFR came to 63 % inhibition.

As to `C=CC(=O)Nc1cccc(Oc2nc(Nc3ccc(N4CCN(C)CC4)c([N+](=O)[O-])c3)nc3c2ccn3COC(=O)C(C)(C)C)c1` [Compound 7], the IC50 with A549 cells (Homo sapiens) amounted to 3.1 µM; with H460 cells (setting [1]), 4.68 µM; with BEAS-2B cells (Homo sapiens), 5.73 µM. The “Single-concentration inhibitory activity against EGFR, Mean (100% inhibition)” value at EGFR was 4.7 % inhibition.

As to `C=CC(=O)Nc1cccc(Oc2nc(Nc3ccc(N4CCN(C)CC4)c(N)c3)nc3c2ccn3COC(=O)C(C)(C)C)c1` [Compound 8], the IC50 was found to be 10.8 µM with A549 cells (Homo sapiens), 7.65 µM with H460 cells (setting [1]) and 9.54 µM with BEAS-2B cells (Homo sapiens). The “Single-concentration inhibitory activity against EGFR, Mean (100% inhibition)” value at EGFR is recorded as 4.5 % inhibition.

In the case of `C=CC(=O)Nc1cccc(Oc2nc(Nc3ccc(N4CCN(C)CC4)c(I)c3)nc3c2ccn3COC(=O)C(C)(C)C)c1` [Compound 9], the IC50 in the assay on A549 cells (Homo sapiens) is 9.63 µM; in the assay with H460 cells (setting [1]) it was 25.1 µM; with BEAS-2B cells (Homo sapiens), 29.1 µM. On EGFR, the “Single-concentration inhibitory activity against EGFR, Mean (100% inhibition)” value is 3.6 % inhibition.
